Assay results published in patent publication US6143492A, “Optical molecular sensors for cytochrome P450 activity” (Aurora Biosciences Corporation, priority 1999, dated 2000).
Several values for one entry are separate records, joined by “and”; a condition that tells them apart may be missing. Equal entries are not always repeated. Where two headings read alike, the source gives them in different places. Each block holds one molecule with its values, some of them ahead of it.

Experiments:
CYP 2C19 = CYP 2C19 (Homo sapiens, UniProt P33261); experiment: Kinetics of fluorogenic substrates with CYP 2C19; type: biochemical; settings: for v (1.25 uM), turnover rate at 1.25 μM: CYP 2C19, substrate 1.25 uM; for v (10 uM), turnover rate at 10 μM: CYP 2C19, substrate 10 uM
CYP 2C9 = CYP 2C9 (Homo sapiens, UniProt P11712); experiment: Kinetics of fluorogenic substrates with CYP 2C9; type: biochemical; settings: for v (1.25 uM), turnover rate at 1.25 μM: CYP 2C9, substrate 1.25 uM; for v (10 uM), turnover rate at 10 μM: CYP 2C9, substrate 10 uM
CYP 2D6 = CYP 2D6 (Homo sapiens, UniProt P10635); experiment: Kinetics of fluorogenic substrates with CYP 2D6; type: biochemical
CYP 2B6 [1] = target: T1, CYP 2B6 (Homo sapiens, UniProt P20813)
T1 sequence (P20813 1-491): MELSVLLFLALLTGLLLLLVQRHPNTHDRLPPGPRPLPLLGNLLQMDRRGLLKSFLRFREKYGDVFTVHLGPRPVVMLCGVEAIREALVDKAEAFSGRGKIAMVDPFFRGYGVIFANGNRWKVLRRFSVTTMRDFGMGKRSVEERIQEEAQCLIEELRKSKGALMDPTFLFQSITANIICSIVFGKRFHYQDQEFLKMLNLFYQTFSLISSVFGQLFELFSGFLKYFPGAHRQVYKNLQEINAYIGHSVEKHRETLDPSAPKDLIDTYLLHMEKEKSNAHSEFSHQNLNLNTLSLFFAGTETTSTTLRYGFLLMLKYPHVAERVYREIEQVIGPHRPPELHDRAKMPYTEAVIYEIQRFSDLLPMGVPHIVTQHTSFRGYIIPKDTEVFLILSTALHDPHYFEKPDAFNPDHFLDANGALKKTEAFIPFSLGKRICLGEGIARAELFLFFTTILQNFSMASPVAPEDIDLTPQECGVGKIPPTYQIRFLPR

CYP 1A2 = target: T2, CYP 1A2 (Homo sapiens, UniProt P05177); experiment: Kinetics of fluorogenic substrates with CYP 1A2; type: biochemical
T2 sequence (P05177 1-516): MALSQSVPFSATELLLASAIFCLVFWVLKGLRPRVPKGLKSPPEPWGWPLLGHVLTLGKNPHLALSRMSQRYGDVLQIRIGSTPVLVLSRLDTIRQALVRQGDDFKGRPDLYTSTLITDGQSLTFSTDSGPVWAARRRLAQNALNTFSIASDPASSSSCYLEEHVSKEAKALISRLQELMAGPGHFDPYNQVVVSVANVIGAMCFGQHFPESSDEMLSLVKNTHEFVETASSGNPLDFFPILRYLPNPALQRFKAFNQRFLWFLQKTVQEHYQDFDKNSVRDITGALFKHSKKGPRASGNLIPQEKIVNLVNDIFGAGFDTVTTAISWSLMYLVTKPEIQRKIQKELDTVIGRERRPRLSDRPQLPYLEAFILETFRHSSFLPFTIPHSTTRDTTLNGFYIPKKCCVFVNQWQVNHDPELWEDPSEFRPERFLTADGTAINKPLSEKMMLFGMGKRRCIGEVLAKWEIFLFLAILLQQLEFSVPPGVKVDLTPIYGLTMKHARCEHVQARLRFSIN

CYP 2B6 [2] = target: T1, CYP 2B6; experiment: Kinetics of fluorogenic substrates with CYP 2B6
[3] = substrate: COc1ccc2c(C(F)(F)F)cc(=O)oc2c1; experiment: Kinetics of fluorogenic substrates with CYP 2C9; type: biochemical, human; settings: other: CYP 2C9
[4] = substrate: N#Cc1cc2ccc(OCOCc3ccccc3)cc2oc1=O; experiment: Kinetics of fluorogenic substrates with CYP 2C9; type: biochemical, human; settings: other: CYP 2C9
[5] = substrate: COCOc1ccc2c(C(F)(F)F)cc(=O)oc2c1; experiment: Kinetics of fluorogenic substrates with CYP 2C9; type: biochemical, human; settings: other: CYP 2C9

Sequence of CYP 2D6 (P10635 whole entry): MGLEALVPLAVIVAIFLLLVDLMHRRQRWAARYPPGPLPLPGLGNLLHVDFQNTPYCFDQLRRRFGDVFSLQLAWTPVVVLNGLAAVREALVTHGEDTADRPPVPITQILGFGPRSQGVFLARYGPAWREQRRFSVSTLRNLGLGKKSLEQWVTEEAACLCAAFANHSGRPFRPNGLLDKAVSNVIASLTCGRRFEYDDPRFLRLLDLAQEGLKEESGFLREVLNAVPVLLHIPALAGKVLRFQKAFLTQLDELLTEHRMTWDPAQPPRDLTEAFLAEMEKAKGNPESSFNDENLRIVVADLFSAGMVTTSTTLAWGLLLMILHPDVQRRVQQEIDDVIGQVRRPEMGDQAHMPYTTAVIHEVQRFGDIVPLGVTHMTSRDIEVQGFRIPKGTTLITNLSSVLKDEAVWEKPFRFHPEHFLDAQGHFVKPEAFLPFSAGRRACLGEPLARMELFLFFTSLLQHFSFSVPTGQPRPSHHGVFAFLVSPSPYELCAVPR
Sequence of CYP 2C19 (P33261 whole entry): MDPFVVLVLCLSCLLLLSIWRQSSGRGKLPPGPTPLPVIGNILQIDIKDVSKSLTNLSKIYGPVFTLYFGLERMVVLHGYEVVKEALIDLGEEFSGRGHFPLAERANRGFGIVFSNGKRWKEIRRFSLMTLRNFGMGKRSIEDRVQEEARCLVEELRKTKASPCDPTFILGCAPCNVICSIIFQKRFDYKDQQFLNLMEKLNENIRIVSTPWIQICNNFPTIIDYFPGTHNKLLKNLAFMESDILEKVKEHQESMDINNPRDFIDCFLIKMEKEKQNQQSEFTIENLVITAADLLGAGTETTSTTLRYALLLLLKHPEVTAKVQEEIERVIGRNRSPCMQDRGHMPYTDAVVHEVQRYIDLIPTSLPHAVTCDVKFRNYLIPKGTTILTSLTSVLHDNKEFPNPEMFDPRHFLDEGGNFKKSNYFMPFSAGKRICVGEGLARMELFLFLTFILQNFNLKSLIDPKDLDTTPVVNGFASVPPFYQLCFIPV

Molecule: CCOc1ccc2cc(C#N)c(=O)oc2c1 [3CEC, 3-Cyano-7-ethoxycoumarin, reference compound]
kcat (CYP 2C19; CYP 2C19): 0.0283 s⁻¹
kcat/Km (CYP 2C19; CYP 2C19): 671 M⁻¹ s⁻¹
type of kinetics (CYP 2C19; CYP 2C19): Michaelis-
v (1.25 uM), turnover rate at 1.25 μM (CYP 2C19): 0.05 min⁻¹
v (10 uM), turnover rate at 10 μM (CYP 2C19): 0.34 min⁻¹
kcat (CYP 1A2; CYP 1A2): 0.733 s⁻¹
kcat/Km (CYP 1A2; CYP 1A2): 28205 M⁻¹ s⁻¹
type of kinetics (CYP 1A2; CYP 1A2): Michaelis-
v (1.25 uM), turnover rate at 1.25 μM (CYP 1A2; CYP 1A2, substrate 1.25 uM): 1.73 min⁻¹
v (10 uM), turnover rate at 10 μM (CYP 1A2; CYP 1A2, substrate 10 uM): 12.55 min⁻¹

B1: CYP 2C9 (Homo sapiens) (protein)
chain: MDSLVVLVLCLSCLLLLSLWRQSSGRGKLPPGPTPLPVIGNILQIGIKDISKSLTNLSKVYGPVFTLYFGLKPIVVLHGYEAVKEALIDLGEEFSGRGIFPLAERANRGFGIVFSNGKKWKEIRRFSLMTLRNFGMGKRSIEDRVQEEARCLVEELRKTKASPCDPTFILGCAPCNVICSIIFHKRFDYKDQQFLNLMEKLNENIKILSSPWIQICNNFSPIIDYFPGTHNKLLKNVAFMKSYILEKVKEHQESMDMNNPQDFIDCFLMKMEKEKHNQPSEFTIESLENTAVDLFGAGTETTSTTLRYALLLLLKHPEVTAKVQEEIERVIGRNRSPCMQDRSHMPYTDAVVHEVQRYIDLLPTSLPHAVTCDIKFRNYLIPKGTTILISLTSVLHDNKEFPNPEMFDPHHFLDEGGNFKKSKYFMPFSAGKRICVGEALAGMELFLFLTSILQNFNLKSLVDPKNLDTTPVVNGFASVPPFYQLCFIPV
Km [3]: 103.0 µM
kcat [3]: 0.0067 s⁻¹
kcat/Km [3]: 70 M⁻¹ s⁻¹
Km [4]: 3.0 µM
kcat/Km [4]: 814 M⁻¹ s⁻¹
Km [5]: 14.9 µM
kcat/Km [5]: 157 M⁻¹ s⁻¹

Results, then the molecule that gave them:

type of kinetics (CYP 2C19; CYP 2C19): not MMK
v (1.25 uM), turnover rate at 1.25 μM (CYP 2C19): 1.26 min⁻¹
v (10 uM), turnover rate at 10 μM (CYP 2C19): 0.69 min⁻¹
conversion to the same fluorescent product vs the most closely structurally-related substrate (CYP 2C9; CYP 2C9): more efficient conversion
kcat (CYP 2C9; CYP 2C9): 0 s⁻¹
kcat/Km (CYP 2C9; CYP 2C9): 952 M⁻¹ s⁻¹
type of kinetics (CYP 2C9; CYP 2C9): Michaelis-
v (1.25 uM), turnover rate at 1.25 μM (CYP 2C9): 0.02 min⁻¹
v (10 uM), turnover rate at 10 μM (CYP 2C9): 0.02 min⁻¹
kcat/Km (CYP 2D6; CYP 2D6): 263 M⁻¹ s⁻¹
type of kinetics (CYP 2D6; CYP 2D6): Michaelis-
v (1.25 uM), turnover rate at 1.25 μM (CYP 2D6; CYP 2D6, substrate 1.25 uM): 0.0185 min⁻¹ and 0.02 min⁻¹
v (10 uM), turnover rate at 10 μM (CYP 2D6; CYP 2D6, substrate 10 uM): 0.0409 min⁻¹ and 0.04 min⁻¹
conversion to the same fluorescent product vs the most closely structurally-related substrate (CYP 2D6; CYP 3A4 and CYP 2D6, Table 8): more efficient conversion
kcat (CYP 2B6 [1]): 0.0067 s⁻¹
kcat/Km (CYP 2B6 [1]): 58333 M⁻¹ s⁻¹
type of kinetics (CYP 2B6 [1]): Michaelis-
v (1.25 uM), turnover rate at 1.25 μM (CYP 2B6 [1]): 0.08 min⁻¹
v (10 uM), turnover rate at 10 μM (CYP 2B6 [1]): 0.10 min⁻¹
Km (CYP 2B6 [1]; cyp 2b6): 0.1 µM
Molecule: COc1ccc(COc2ccc3nc4ccc(=O)cc-4oc3c2)cc1 [MOBR, Paramethoxybenzylresorufin]

conversion to the same fluorescent product vs the most closely structurally-related substrate (CYP 2C9; CYP 2C9): more efficient conversion
kcat (CYP 2C9; CYP 2C9): 0.0017 s⁻¹
type of kinetics (CYP 2C9; CYP 2C9): Michaelis-
v (1.25 uM), turnover rate at 1.25 μM (CYP 2C9): 0.00 min⁻¹
v (10 uM), turnover rate at 10 μM (CYP 2C9): 0.07 min⁻¹
conversion to the same fluorescent product vs the most closely structurally-related substrate (CYP 2B6 [2]; CYP 2B6): less efficiently converted
type of kinetics (CYP 2B6 [2]; CYP 2B6): not Michaelis-
v (1.25 uM), turnover rate at 1.25 μM (CYP 2B6 [2]; CYP 2B6, substrate 1.25 uM): 0.54 min⁻¹
v (10 uM), turnover rate at 10 μM (CYP 2B6 [2]; CYP 2B6, substrate 10 uM): 0.71 min⁻¹
Molecule: COCOc1ccc2c(C(F)(F)F)cc(=O)oc2c1 [MOMFC, 7-methyloxymethyloxy-4-trifluoromethylcoumarin]
